From BigSolDB 2.1

CC(=O)N[C@H](C(=O)O)C(C)C
solubility (mole fraction)
Settings | 283.15 K | 288.15 K | 293.15 K | 298.15 K | 303.15 K | 308.15 K | 313.15 K | 318.15 K | 323.15 K | 328.15 K
in 1,4-dioxane | – | 0.0324 | 0.0363 | 0.0427 | 0.0495 | 0.06 | 0.0712 | 0.0805 | 0.0921 | 0.109
in 2-butanone | 0.00606 | 0.00748 | 0.00907 | 0.0112 | 0.0141 | 0.0176 | 0.021 | 0.0245 | 0.0292 | –
in acetone | 0.0102 | 0.0133 | 0.0163 | 0.0196 | 0.0238 | 0.0284 | 0.0333 | 0.039 | 0.0437 | –
in acetonitrile | 0.00204 | 0.0026 | 0.00352 | 0.00464 | 0.0055 | 0.00668 | 0.00792 | 0.00909 | 0.0105 | –
in dimethyl carbonate | 0.00116 | 0.00139 | 0.00169 | 0.0021 | 0.00261 | 0.00331 | 0.00395 | 0.00489 | 0.00611 | –
in ethyl acetate | 0.00279 | 0.00342 | 0.00403 | 0.00487 | 0.006 | 0.00718 | 0.00847 | 0.01 | 0.0119 | –
in isobutanol | 0.0341 | 0.0396 | 0.0465 | 0.0566 | 0.0648 | 0.0777 | 0.0881 | 0.101 | 0.114 | –
in isopropanol | 0.0401 | 0.048 | 0.0558 | 0.0662 | 0.0782 | 0.091 | 0.104 | 0.12 | 0.134 | –
in methyl acetate | 0.00339 | 0.00393 | 0.00485 | 0.0058 | 0.00694 | 0.0082 | 0.00972 | 0.0112 | 0.0128 | –
in n-butanol | 0.0371 | 0.0428 | 0.0506 | 0.0595 | 0.0685 | 0.0786 | 0.0902 | 0.104 | 0.115 | –
in n-propanol | 0.0449 | 0.0512 | 0.06 | 0.0747 | 0.0876 | 0.111 | 0.13 | 0.151 | 0.171 | –
in water | 0.00557 | 0.00611 | 0.0066 | 0.00748 | 0.00872 | 0.01 | 0.0116 | 0.0137 | 0.0159 | –
